Results reported in patent US8013153B2, “Substituted pyrimidine kinase inhibitors” (Janssen Pharmaceutica, N.V., priority 2006, dated 2011).

What was measured:
CDK1:Cyclin-B = molecular target: T1, CDK1:Cyclin-B (Homo sapiens, UniProt P06493); test: CDK1 Screening Assay; format: biochemical
T1 construct: purchased New England Biolabs, Beverly, Mass; 6020; host or cells: insect cells

[1] = molecular target: T2, rat VEGF-R2 kinase domain (Rattus norvegicus, UniProt O08775); test: VEGF-R2 Screening Assay; format: biochemical; conditions: > means no observed 50% inhibition at the indicated test concentration; ~ means approximately 50% inhibition at that concentration; read-out: IC50 VEGF-R2
T2 construct: amino acids 786-1343 of the rat VEGF-R2 kinase domain; polyhistidine (N)

murine Aurora-A = molecular target: T3, murine Aurora-A (Mus musculus, UniProt P97477); test: Aurora-A Screening Assay; format: biochemical
T3 construct: replaced with the full length protein encoding the murine Aurora-A; made in house; host or cells: sf9 insect cells
T3 sequence (P97477 1-395): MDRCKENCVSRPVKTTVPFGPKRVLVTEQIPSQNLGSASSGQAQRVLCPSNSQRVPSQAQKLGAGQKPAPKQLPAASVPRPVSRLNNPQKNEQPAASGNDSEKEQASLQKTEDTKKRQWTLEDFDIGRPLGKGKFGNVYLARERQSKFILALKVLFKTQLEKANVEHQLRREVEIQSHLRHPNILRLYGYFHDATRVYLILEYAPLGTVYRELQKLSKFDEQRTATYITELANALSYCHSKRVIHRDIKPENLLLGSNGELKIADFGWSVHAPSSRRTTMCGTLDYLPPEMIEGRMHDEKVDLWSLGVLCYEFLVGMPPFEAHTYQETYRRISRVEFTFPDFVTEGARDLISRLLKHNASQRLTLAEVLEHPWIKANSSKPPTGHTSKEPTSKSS

HER2 cytoplasmic domain = molecular target: T4, HER2 cytoplasmic domain (Homo sapiens, UniProt P04626); test: HER2 Kinase Screening Assay; format: biochemical; conditions: > means no observed 50% inhibition at the indicated test concentration; ~ means approximately 50% inhibition at that concentration
T4 construct: polyhistidine (N)

RET cytoplasmic domain = molecular target: T5, RET cytoplasmic domain (Homo sapiens, UniProt P07949); test: RET Kinase Screening Assay; format: biochemical
T5 construct: the RET cytoplasmic domain consisting of the last 492 amino acids of the intracellular domain; histidine tag (N); made in house; host or cells: Hi5 insect cells
T5 sequence (P07949 658-1114 limits assumed): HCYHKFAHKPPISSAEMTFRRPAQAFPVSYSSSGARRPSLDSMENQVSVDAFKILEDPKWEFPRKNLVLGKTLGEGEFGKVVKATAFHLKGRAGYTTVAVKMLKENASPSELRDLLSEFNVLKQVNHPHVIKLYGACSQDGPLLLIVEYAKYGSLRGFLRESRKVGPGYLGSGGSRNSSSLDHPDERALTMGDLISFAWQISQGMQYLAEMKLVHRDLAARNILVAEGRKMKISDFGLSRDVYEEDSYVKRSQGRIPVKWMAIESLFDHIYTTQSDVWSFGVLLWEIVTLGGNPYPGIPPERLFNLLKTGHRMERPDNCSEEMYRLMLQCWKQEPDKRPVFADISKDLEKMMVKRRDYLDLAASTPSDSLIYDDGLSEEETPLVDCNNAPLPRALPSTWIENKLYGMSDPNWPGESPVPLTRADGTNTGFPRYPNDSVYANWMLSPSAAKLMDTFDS

[2] = test system: HeLa cervical adenocarcinoma; test: Inhibition of in vitro cell proliferation (HeLa); format: cell-based, human; conditions: Homo sapiens, 14C-thymidine incorporation;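 also: cells exposed to compound for 24 h, then labelled 24 h with methyl 14C-thymidine, with uptake into DNA counted by scintillation against DMSO-only control wells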
HCT-116 colon carcinoma = test: Inhibition of in vitro cell proliferation (HCT116); format: cell-based, human; conditions: Homo sapiens, HCT-116, 14C-thymidine incorporation;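 also: cells exposed to compound for 24 h, then 14C-thymidine added for a further 24 h and its uptake into DNA counted by scintillation, DMSO-only wells as control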
A375 malignant melanoma = test: Inhibition of in vitro cell proliferation (A375); format: cell-based, human; conditions: Homo sapiens, A-375, 14C-thymidine incorporation;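 also: cells plated for 24 h, given compound for 24 h, then labelled with 14C-thymidine for another 24 h, with DMSO-only wells as control and counts read by scintillation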

T1 sequence (P06493 whole entry): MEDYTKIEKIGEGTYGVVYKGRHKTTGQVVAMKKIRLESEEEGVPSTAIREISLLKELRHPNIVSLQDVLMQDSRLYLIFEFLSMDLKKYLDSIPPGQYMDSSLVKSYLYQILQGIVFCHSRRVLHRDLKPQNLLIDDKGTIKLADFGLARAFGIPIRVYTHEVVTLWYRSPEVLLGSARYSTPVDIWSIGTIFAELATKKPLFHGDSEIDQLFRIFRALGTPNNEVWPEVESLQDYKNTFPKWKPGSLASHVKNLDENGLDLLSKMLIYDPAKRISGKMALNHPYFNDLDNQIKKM
T1 sequence (P14635 whole entry partner): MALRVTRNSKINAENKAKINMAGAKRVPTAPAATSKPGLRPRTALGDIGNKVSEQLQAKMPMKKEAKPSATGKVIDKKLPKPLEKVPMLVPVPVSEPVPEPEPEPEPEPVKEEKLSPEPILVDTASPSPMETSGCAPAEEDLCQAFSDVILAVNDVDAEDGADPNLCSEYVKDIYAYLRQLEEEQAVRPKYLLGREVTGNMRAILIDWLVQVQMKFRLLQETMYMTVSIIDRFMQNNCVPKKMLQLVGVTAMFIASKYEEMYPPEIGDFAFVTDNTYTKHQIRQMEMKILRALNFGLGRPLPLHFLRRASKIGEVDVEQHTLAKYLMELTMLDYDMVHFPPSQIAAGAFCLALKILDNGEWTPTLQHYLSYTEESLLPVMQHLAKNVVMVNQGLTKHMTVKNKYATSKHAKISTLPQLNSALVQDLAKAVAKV
T2 sequence (O08775 786-1343): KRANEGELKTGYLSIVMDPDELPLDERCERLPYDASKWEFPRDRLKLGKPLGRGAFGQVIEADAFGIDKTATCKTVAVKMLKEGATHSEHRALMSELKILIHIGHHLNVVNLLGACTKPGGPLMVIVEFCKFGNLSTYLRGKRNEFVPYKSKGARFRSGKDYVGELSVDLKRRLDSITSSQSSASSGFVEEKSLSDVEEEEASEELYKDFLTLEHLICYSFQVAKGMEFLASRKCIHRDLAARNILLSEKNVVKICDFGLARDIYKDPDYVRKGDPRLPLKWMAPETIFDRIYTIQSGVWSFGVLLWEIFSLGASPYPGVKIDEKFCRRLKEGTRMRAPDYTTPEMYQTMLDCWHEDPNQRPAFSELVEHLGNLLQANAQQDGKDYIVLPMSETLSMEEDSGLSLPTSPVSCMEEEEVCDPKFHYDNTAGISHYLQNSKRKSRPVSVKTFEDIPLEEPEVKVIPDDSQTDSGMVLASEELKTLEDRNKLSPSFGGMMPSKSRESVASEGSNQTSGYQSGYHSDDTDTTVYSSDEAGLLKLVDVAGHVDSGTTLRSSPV
T4 sequence (P04626 676-1255 limits assumed): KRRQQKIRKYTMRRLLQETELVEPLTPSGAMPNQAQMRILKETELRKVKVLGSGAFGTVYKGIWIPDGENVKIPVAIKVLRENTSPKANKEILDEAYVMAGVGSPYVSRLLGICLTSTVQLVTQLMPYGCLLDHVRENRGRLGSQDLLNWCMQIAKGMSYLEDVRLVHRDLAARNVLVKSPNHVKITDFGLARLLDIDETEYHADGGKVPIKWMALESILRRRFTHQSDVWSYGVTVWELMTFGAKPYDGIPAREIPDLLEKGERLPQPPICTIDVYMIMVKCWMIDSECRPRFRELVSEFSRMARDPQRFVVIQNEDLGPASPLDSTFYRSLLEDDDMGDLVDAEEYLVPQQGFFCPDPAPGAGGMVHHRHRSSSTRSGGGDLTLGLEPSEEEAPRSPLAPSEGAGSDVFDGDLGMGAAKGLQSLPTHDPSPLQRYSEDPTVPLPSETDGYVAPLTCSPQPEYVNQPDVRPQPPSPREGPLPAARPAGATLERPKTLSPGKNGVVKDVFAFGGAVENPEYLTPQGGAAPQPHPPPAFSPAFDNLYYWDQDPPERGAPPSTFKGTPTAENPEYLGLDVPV

SMILES	IC50 (CDK1:Cyclin-B) [µM]	IC50 [1] [µM]	IC50 (murine Aurora-A) [µM]	IC50 (HER2 cytoplasmic domain) [µM]	IC50 (RET cytoplasmic domain) [µM]	IC50 [2] [µM]	IC50 (HCT-116 colon carcinoma) [µM]	IC50 (A375 malignant melanoma) [µM]
CNc1ncnc(Oc2ccc3[nH]ccc3c2)c1C=NOC [Cpd 3, 4-(1H-indol-5-yloxy)-6-methylamino-pyrimidine-5-carbaldehyde O-methyl-oxime]	> 100	> 100	> 100	> 100	> 100	> 10	> 10	> 10
CON=Cc1c(NOC)ncnc1Oc1ccc2[nH]ccc2c1 [Cpd 4, 4-(1H-indol-5-yloxy)-6-methoxyamino-pyrimidine-5-carbaldehyde O-methyl-oxime]	> 100	4.77	> 100	> 10	~100	> 10	38.3	> 10
Cc1cc2c(F)c(Oc3ncnc(N)c3C=NOCCCN3CCCC3)ccc2[nH]1 [Cpd 18, 4-amino-6-(4-fluoro-2-methyl-1H-indol-5-yloxy)-pyrimidine-5-carbaldehyde O-(3-pyrrolidin-1-yl-propyl)-oxime]	> 100	0.065	> 10	1.49	8.11	4.18	4.5	2.61
Cc1cc2c(F)c(Oc3ncnc(N)c3C=NOCCCN3CCOCC3)ccc2[nH]1 [Cpd 19, 4-amino-6-(4-fluoro-2-methyl-1H-indol-5-yloxy)-pyrimidine-5-carbaldehyde O-(3-morpholin-4-yl-propyl)-oxime]	> 100	~0.1	> 100	1.23	3.58	4.91	9.24	3.82
Cc1cc2c(F)c(Oc3ncnc(N)c3C=NOCCCN3CCN(S(C)(=O)=O)CC3)ccc2[nH]1 [Cpd 22, 4-amino-6-(4-fluoro-2-methyl-1H-indol-5-yloxy)-pyrimidine-5-carbaldehyde O-[3-(4-methanesulfonyl-piperazin-1-yl)-propyl]-oxime]	> 100	0.045	> 100	1.41	2.77	> 10	> 10	> 10
CC(=O)N1CCN(CCCON=Cc2c(N)ncnc2Oc2ccc3[nH]c(C)cc3c2F)CC1 [Cpd 23, 4-amino-6-(4-fluoro-2-methyl-1H-indol-5-yloxy)-pyrimidine-5-carbaldehyde O-[3-(4-acetyl-piperazin-1-yl)-propyl]-oxime]	> 100	0.082	> 100	1.78	8.32	> 10	> 10	> 10
Cc1cc2c(F)c(Oc3ncnc(N)c3/C=N/O)ccc2[nH]1 [Cpd 27, 4-amino-6-(4-fluoro-2-methyl-1H-indol-5-yloxy)-pyrimidine-5-carbaldehyde oxime]	> 100	0.033	~10	~10	> 10	0.472	1.14	0.492
COCCON=Cc1c(N)ncnc1Oc1ccc2[nH]c(C)cc2c1F [Cpd 28, 4-amino-6-(4-fluoro-2-methyl-1H-indol-5-yloxy)-pyrimidine-5-carbaldehyde O-(2-methoxy-ethyl)-oxime]	> 100		> 100	~10	> 100	0.308	0.387	0.233
Cc1cc2c(F)c(Oc3ncnc(N)c3C=NOCCCO)ccc2[nH]1 [Cpd 29, 4-amino-6-(4-fluoro-2-methyl-1H-indol-5-yloxy)-pyrimidine-5-carbaldehyde O-(3-hydroxy-propyl)-oxime]	> 100		> 10	4.63	> 10	0.362	0.452	0.336
